Experimental data from ChEMBL document CHEMBL1201862, “PubChem BioAssay data set” (2004).
Calls of active or inactive are those of the source.

What was measured:
[1] = biological target: T1, Tyrosyl-DNA phosphodiesterase 2 (Homo sapiens, UniProt O95551); assay: human TDP2 enzyme inhibitors, dose response, biochemical, epi absorbance, IC50 (AID 743297)
T1 sequence (O95551 whole entry): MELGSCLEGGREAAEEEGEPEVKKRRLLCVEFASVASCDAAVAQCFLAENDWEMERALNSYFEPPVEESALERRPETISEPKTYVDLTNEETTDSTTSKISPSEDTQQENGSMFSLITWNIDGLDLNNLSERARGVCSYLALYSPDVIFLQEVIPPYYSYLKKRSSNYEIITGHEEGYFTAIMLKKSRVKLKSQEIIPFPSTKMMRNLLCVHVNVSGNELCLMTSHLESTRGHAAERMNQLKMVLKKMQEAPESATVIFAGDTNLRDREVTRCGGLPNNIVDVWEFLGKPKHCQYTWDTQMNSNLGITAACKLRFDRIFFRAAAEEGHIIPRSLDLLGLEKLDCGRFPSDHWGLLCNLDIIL

Streptokinase A = biological target: T2, Streptokinase A (Streptococcus pyogenes serotype M1, UniProt P10520); assay: S. pyogenes streptokinase expression inhibitors, potency, dose response, plasminogen activation absorbance, OD405 (AID 1914); format: functional, Streptococcus pyogenes M1 GAS;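 further: secreted streptokinase activity via plasminogen activation per viability signal from cell pellet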
T2 sequence (P10520 whole entry): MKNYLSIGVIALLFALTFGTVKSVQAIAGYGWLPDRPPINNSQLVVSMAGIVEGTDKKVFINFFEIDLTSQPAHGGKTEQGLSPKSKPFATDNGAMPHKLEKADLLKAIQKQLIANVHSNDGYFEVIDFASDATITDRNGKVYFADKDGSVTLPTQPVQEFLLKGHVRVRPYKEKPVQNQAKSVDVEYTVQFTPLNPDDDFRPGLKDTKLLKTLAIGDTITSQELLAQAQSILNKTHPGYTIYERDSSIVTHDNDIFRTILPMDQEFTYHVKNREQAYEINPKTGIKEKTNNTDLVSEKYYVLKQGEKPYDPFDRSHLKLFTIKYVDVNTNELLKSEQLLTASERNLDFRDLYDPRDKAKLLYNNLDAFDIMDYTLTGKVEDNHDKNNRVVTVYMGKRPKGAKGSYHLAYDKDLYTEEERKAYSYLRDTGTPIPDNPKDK

[2] = biological target: T3, Apoptotic protease-activating factor 1 (Homo sapiens, UniProt O14727); format: functional
T3 sequence (O14727 whole entry): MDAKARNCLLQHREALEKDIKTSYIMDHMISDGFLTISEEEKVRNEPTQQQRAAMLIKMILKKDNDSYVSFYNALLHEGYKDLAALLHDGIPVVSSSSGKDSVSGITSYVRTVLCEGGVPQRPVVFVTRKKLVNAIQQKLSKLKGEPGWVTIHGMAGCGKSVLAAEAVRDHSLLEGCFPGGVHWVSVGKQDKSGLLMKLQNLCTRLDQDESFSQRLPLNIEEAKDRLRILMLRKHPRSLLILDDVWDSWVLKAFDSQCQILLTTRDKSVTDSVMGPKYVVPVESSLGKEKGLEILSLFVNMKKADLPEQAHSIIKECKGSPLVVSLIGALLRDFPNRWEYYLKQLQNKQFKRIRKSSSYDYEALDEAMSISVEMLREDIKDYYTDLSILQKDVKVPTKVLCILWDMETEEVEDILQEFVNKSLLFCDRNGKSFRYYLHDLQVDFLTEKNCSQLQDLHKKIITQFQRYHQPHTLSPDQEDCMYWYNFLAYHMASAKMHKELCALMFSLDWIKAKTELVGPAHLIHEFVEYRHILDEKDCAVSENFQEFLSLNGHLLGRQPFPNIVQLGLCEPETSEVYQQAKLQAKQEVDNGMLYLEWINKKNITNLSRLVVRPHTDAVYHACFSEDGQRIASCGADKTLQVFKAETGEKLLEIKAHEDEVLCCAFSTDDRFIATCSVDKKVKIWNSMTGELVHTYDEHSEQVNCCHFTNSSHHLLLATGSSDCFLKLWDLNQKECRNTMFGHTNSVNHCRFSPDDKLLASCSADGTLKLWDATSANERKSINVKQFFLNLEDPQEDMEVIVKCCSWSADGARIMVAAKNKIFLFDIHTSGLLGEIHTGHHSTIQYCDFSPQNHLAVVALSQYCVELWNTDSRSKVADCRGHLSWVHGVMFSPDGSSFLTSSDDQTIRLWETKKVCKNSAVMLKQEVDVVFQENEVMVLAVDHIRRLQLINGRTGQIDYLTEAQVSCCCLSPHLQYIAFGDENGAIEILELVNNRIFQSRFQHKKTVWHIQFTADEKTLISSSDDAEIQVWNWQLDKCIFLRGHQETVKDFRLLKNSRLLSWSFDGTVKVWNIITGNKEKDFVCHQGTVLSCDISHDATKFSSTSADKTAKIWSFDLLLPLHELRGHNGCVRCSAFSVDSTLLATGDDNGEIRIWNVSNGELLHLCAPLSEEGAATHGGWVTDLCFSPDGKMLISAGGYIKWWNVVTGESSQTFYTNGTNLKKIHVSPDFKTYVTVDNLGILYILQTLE

[3] = C. albicans growth with fluconazole, confirmation, fluorescence, retest (AID 2467); format: functional, cell-based
[4] = NIH-3T3 fibroblast cytotoxicity, dose response, cytotoxicity control, cell-based, fluorescence, Alamar Blue, secondary assay (AID 2327); format: functional;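 further: NIH-3T3 mouse fibroblasts cultured with fluconazole at 8 µg/mL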
Streptococcus = assay: Group A Streptococcus viability loss, dose response, counter-screen for streptokinase expression inhibitor project, luminescence, BacTiterGlo (AID 1915); format: functional, organism-based;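 further: potency for reduction of bacterial viability or growth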
[5] = tested on: Streptococcus sp. 'group A'; assay: growth inhibition of control SK(-) GAS strain, dose response, counter-screen for streptokinase expression inhibitor project, luminescence, kanamycin, BacTiterGlo, confirmation (AID 1900); format: functional, organism-based
[6] = Vero cell cytotoxicity, dose response, cytotoxicity control for Vif-APOBEC3G degradation inhibitor project, Vero cells (AID 1117358); format: functional; conditions: Human immunodeficiency virus 1, Vero
[7] = Shn3 3'UTR reporter inhibitors, dose response, cell-based, Clone20 osteoblasts, firefly luciferase, cherry-picked (AID 624132); format: functional;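 further: firefly luciferase luminescence from reporter carrying the Shn3 3'UTR in osteoblasts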
[8] = control 3'UTR Renilla luciferase suppression, dose response, counter-screen for Shn3 inhibitor project, cell-based, Clone20-Shn3RL, cherry-picked (AID 624133); format: functional
[9] = HepG2 cell cytotoxicity, dose response, cytotoxicity control for Shn3 inhibitor project, CellTiter-Glo, cherry-picked (AID 624134); format: functional, cell-based
[10] = inhibitors of PGC1a acetylation in cells, dose response, cell-based, cherry-picked samples (AID 720514); format: functional;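 further: potency may reflect raised or lowered acetylation signal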
Paired box protein Pax-8 = Paired box protein Pax-8 (Homo sapiens, UniProt Q06710); assay: inhibitors of PAX8-driven TPO luciferase reporter, dose response, RMG-I cells, cherry-pick (AID 687027); format: functional, cell-based;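 further: luciferase reporter driven by Pax8 target thyroperoxidase promoter measured by SteadyGlo luminescence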
Paired box protein Pax-8, sequence (Q06710 whole entry): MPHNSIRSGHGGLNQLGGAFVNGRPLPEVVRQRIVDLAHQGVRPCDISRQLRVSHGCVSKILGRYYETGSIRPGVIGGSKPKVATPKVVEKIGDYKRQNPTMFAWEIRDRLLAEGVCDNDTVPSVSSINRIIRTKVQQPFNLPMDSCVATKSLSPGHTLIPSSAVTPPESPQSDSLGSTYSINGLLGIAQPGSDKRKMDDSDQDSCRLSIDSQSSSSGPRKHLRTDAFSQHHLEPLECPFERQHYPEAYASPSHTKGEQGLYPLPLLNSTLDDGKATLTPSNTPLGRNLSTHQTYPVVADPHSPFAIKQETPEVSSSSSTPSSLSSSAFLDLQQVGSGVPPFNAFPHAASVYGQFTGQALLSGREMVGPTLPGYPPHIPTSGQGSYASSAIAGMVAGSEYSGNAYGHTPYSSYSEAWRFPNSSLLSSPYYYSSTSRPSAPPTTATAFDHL

[11] = cytotoxicity in OVCAR8 ovarian cancer cells, dose response, PAX8 project, cell-based, plate reader, dry powder samples (AID 743197); format: functional; conditions: OVCAR-8

Oc1c(Br)cc(Br)cc1CNc1cccc2cccnc12
IC50 [1]: > 128 µM (inactive) | EC50 (Streptokinase A): > 150 µM (not active) | IC50 [2]: 40.2 µM (active) | EC50 [3]: > 38 µM (not active) | EC50 [4]: 101 µM (active) | EC50 (Streptococcus): 9.25 µM (active) | EC50 [5]: 6.08 µM (active)

Cc1cccc(N2CCN(C(=O)c3ccncc3)CC2)c1C
CC50 [6]: > 40 µM (active)

COc1ccccc1NC(=O)Cn1c(C)cc(=O)c2cccc(OC)c21
AC50 [7]: 3.16 µM (active) | AC50 [8]: 4.46 µM (active) | AC50 [9]: 48.1 µM (active) | AC50 [10]: 35.8 µM (active)

O=C(CCNS(=O)(=O)c1ccc(Cl)cc1)NCc1cccnc1
CC50 [6]: > 40 µM (active)

C[C@@H]1CN([C@H](C)CO)C(=O)c2cc(NS(=O)(=O)c3cccs3)ccc2O[C@@H](C)CCCCO[C@H]1CN(C)Cc1ccc(C(F)(F)F)cc1
AC50 (Paired box protein Pax-8): 8.66 µM (active) | AC50 [11]: > 70 µM (inactive)
